# Data published in patent US10952940B2, “Reagents and methods for mineralization of tooth enamel” (UNIVERSITY OF WASHINGTON, priority 2016, dated 2021).
# What was measured:
# Design in all cases: species or system human
# [1] = Solution mineralization approach on tetracycline-stained teeth, Mean Pixel Intensity; conditions: repeated rounds of remineralization
# Text: Human teeth, donated by the University of Washington School of Dentistry (Seattle, Wash., USA), were selected for their clean, smooth surfaces. The teeth were sterilized in bleach, cut on a diamond blade to remove the root, and halved. A thin layer of the enamel surface was then cut on one of the halves parallel to the previous cut, such that the dentin layer could be seen without completely removing the enamel on the tooth. This allowed imaging of the enamel surfaces after the mineralization experiment without the problem of surface reflection encountered in previous experiments, in addition to a more parallel surface from which to compare the brightness or whiteness results. The cut enamel side of the tooth sample was then sonicated in DI water and polished on diamond slurry smooth out the surface for imaging. The sample was then cut into quarters, with the lower half selected for a tetracycline experiment because of the even distribution of dentin coloring in the lower quarters of the tooth sample. The samples were then stained in 10 mg/mL tetracycline solution for five days.
# During mineralization, using a 96-well plate, one of the stained halves was stored in […] Tris (24 mM) as a negative control, and the experimental sample was incubated in 150 μL shADP5 (0.8 mM) at 37° C. for 10 minutes. […]
# [2] = Remineralization of artificial white spot lesions, SEM and EDXS analyses of new mineral layer; conditions: for thickness of newly formed mineral layer: SEM of cross-sectioned samples, 1 hour treatment
# Text: Extracted teeth with no visible white spot lesions, caries, or any other kind of restorations were collected from dental clinics around the King County area (WA, USA) and disinfected in 10% aqueous bleach solutions. Prior to the experiments, the teeth were cleaned to remove visible blood, gross debris and soft connective tissue using a dental scaler under a light microscope.
# Enamel was demineralized to create artificial lesions to mimic white spot lesions and/or incipient caries. The teeth were covered by lacquer leaving a 4-mm wide square window in the enamel close to cemento-enamel junction. The exposed areas of 4×4 mm enamel were treated with a cocktail of acetic acid/CaCl2/KH2PO4 for 2 weeks to establish up to 200 μm deep artificially created non-cavitated white spot lesions (WSL). Samples were then divided into control and test groups. Test groups were treated either with peptide, fluoride, or combination of both (Table 5).
# Prior to remineralization, samples requiring peptide treatments (Groups 5 & 6) were incubated in 50 μL of 0.8 mM peptide dissolved in 50 mM Tris Buffer Solution (TBS) (pH:7.4) for 10 minutes at 37° C. Next, treatment samples were exposed to 50 mM TBS containing Ca^2+/PO4^3− (Groups 2, 5) or Ca^2+/PO4^3−/F^− (Groups 3, 4, 6) at concentrations as listed in Table 5 for 1 hour at 37° C., then rinsed with de-ionized (DI) water, dried by forced air and stored at room temperature until characterization.
# After re-mineralization experiments were completed, secondary electron imaging (SEI) in the scanning electron microscope (SEM) was used to characterize the surface morphology and to show the thickness of newly formed mineral layer in cross-sections where applicable. Specimen preparation for SEM involved cutting a notch on the back side using a low speed saw (IsoMet™, Buehler, Lake Bluff, Ill., USA) before they were subjected to WSL formation and remineralization as described above. After remineralization step was completed, specimens were rinsed with DI water, air dried gently (<5 PSI), then carefully fractured into 2 pieces along the notch. One of the fractured pieces was mounted on a SEM stub with the mineralizing surface facing up for imaging the surface morphology and second piece was mounted with the cross-section facing up to show the thickness of mineral layer. Mounted specimens were then stored in vacuum for at least 2 hours to remove residual moisture which were then sputter coated with 5-nm thick platinum (SPI-Sputter Module Coater, SPI Supplies, West Chester, Pa., USA). SEM characterization was performed using an FEI Sirion microscope (Sirion, FEI, Hillboro, Oreg., USA) operating at 10 kV acceleration voltage. The chemical composition was measured by an onboard energy dispersive X-ray spectroscopy (EDXS) system (X-Max^N Si drift detector with AZtecEnergy software package, Oxford Instruments, Abingdon, Oxfordshire, UK). The measurements for each group were pooled from 5 specimens per group. The average values and standard deviations were calculated and expressed as the mean±standard error.
# [3] = Nanoindentation of mineralized layers in cross-section
# Text: Similar to SEM specimen preparation, tooth samples were notched from the back of tooth before remineralization, then fractured along the notch. The specimens were then mounted in a room temperature-cure epoxy, and the cross-section of the fracture was polished to 0.1 μm finish using diamond lapping films (Allied High Tech Products Inc., Rancho Dominguez, Calif., USA). Nanoindentation measurements were made using a Triboindentor nanoindentation system (Hysitron Inc., Minneapolis, Minn., USA) in air. Hardness (H) and elastic modulus (Er) were determined by the software accompanying the nanoindentation unit.^40-42 In order to obtain the values that were not indentation volume dependent, maximum indentation depth for all measurements kept at 120±10 nm. All reported H and Er values were averaged over 20 measurements.
# Nanoindentation, on the other hand, can handle a much smaller applied load, e.g., in the range of 700 to 800 μN; this range of loads to maintain a nominal total indentation depth of approximately 100 nm (<1 μm in indentation width) reasonable depth for both the WSL and mineralized layer regions. The method provides a dynamic measurement with the indentation system tracking continuously load vs. depth during the indentation process providing a Force-to-depth (F-d) profile of the mechanical response of the sample, including biological hard tissues such as enamel, dentin, and bone. The hardness and elastic modulus were extracted from the linear extrapolation of the unloading curve (see FIG. 14b). Hardness obtained by this method contains partial elastic deformation as well as plastic deformation. With small indentation depth and footprint, indentation characterization of the mineral layer only was possible in cross-section for the group 6 samples where mineral layers were more than 5 μm thick. All other treatment groups, reliable nanoindentation characterization of the layers […] because of the thin, and in some cases, discontinuous natural of the layers. It should also be noted that the nanomechanical properties of the artificially created lesion were also determined, with values similar to those of the mineralized layers. Regardless, the complete nanoindentation values are tabulated in Table 10 where each value represents more than 20 measurements per sample.
# [4] = EDXS, 1 hour treatment at 37° C.
# [5] = mineralized layer, n ≥ 20, listed as Group 6 (shADP5)
# [6] = mineralized layer, n ≥ 20, listed as group 6
# [7] = underlying enamel of Group 6 samples
sequence,measurement,setting,value
"SYENSHSQAINVDRT [shADP5, 15-amino acid long amelogenin-derived peptide, shortened human ADP5]",whiteness of the stained tooth,[1],improves with repeated rounds of remineralization
same,delivery of fluoride into the mineral layer,[2]; EDXS,allows the delivery and incorporation of fluoride ions into the remineralized layer even at low F concentrations
same,Possible Mineral Formed,[2]; [4],Only HAP
same,Remineralized Layer Ca/O,[2]; [4],0.56 ± 0.13
same,Remineralized Layer Ca/P,"[2]; EDXS, 1 hour treatment at 37° C., listed as 6. Peptide only",1.56 ± 0.12
same,Remineralized Layer Ca/P,"[2]; EDXS, 1 hour treatment at 37° C., listed as Group 6",1.54±0.12
same,Remineralized Layer Ca/P,"[2]; EDXS, 1 hour treatment at 37° C., listed as Group-6",1.56
same,thickness of newly formed mineral layer,[2]; listed as Group 6,10 μm
same,thickness of newly formed mineral layer,[2]; listed as Group-6,> 10 μm
same,thickness of newly formed mineral layer,[2]; listed as Peptide alone,10 μm
same,Elastic Modulus (nanoindentation),[3]; [5],58.6 ± 4.7 GPa
same,Hardness (nanoindentation),[3]; [5],2.23 ± 0.23 GPa
same,Elastic Modulus (nanoindentation),[3]; [6],58.6±4.7 GPa
same,Hardness (nanoindentation),[3]; [6],2.23±0.23 GPa
same,Elastic Modulus (nanoindentation),[3]; [7],55.0 ± 4.6 GPa
same,Hardness (nanoindentation),[3]; [7],2.12 ± 0.21 GPa
